# Assay results published in US20220340597A1, “HEXAHYDRO-1H-PYRAZINO[1,2-A]PYRAZINE COMPOUNDS FOR THE TREATMENT OF AUTOIMMUNE DISEASE” (Hoffmann-La Roche Inc., priority 2019, published 2022).
# Columns and labels:
# human TLR8 = target: T1, human TLR8 (Homo sapiens, UniProt Q9NR97); assay: HEK293-Blue-hTLR-8 cells assay
# T1 sequence (Q9NR97 27-1041): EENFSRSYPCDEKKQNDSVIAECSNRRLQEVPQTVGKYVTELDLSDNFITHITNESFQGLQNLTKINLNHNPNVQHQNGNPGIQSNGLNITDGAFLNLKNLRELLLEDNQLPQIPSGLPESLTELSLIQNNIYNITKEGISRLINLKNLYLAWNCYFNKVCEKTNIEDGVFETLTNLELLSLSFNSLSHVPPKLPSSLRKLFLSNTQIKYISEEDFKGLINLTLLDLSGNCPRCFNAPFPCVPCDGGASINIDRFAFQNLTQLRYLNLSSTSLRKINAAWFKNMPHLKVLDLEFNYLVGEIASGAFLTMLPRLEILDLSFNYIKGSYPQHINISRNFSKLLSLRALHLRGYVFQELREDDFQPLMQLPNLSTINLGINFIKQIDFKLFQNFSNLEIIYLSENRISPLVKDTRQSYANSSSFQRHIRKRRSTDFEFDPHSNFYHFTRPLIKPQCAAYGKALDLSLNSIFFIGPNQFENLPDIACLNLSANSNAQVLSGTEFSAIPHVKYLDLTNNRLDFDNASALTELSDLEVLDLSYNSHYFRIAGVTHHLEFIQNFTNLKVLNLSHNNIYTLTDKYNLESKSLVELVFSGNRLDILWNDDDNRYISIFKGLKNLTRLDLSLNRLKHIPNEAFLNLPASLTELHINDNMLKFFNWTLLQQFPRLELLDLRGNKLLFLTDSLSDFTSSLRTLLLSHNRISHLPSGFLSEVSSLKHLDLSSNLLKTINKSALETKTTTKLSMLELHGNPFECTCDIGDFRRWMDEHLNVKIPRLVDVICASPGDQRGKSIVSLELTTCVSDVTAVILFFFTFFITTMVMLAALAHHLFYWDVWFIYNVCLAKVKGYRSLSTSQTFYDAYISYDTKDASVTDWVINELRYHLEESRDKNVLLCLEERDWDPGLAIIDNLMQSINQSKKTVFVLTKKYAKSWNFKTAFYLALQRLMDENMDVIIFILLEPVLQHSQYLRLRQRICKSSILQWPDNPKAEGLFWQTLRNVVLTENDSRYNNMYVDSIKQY
# Description: The following tests were carried out in order to determine the activity of the compounds of formula (I) and (Ia) in HEK293-Blue-hTLR-7/8/9 cells assay.
# HEK293-Blue-hTLR-8 Cells Assay:
# A stable HEK293-Blue-hTLR-8 cell line was purchased from InvivoGen (Cat. #: hkb-htlr8, San Diego, Calif., USA). These cells were originally designed for studying the stimulation of human TLR8 by monitoring the activation of NF-κB. A SEAP (secreted embryonic alkaline phosphatase) reporter gene was placed under the control of the IFN-β minimal promoter fused to five NF-κB and AP-1-binding sites. The SEAP was induced by activating NF-κB and AP-1 via stimulating HEK-Blue hTLR8 cells with TLR8 ligands. Therefore, the reporter expression was declined by TLR8 antagonist under the stimulation of a ligand, such as R848, for incubation of 20 hrs. The cell culture supernatant SEAP reporter activity was determined using QUANTI-Blue™ kit (Cat. #: rep-qb1, Invivogen, San Diego, Calif., USA) at a wavelength of 640 nm, a detection medium that turns purple or blue in the presence of alkaline phosphatase.
# human TLR7 = target: T2, human TLR7 (Homo sapiens, UniProt Q9NYK1); assay: HEK293-Blue-hTLR-7 cells assay; type: cell-based; details: HEK293-Blue-hTLR7 cells, R848 stimulation, 20 hrs, SEAP reporter; read-out: HEK/hTLR7 IC50
# T2 construct: host or cells: HEK293 (HEK-Blue hTLR7)
# T2 sequence (Q9NYK1 27-1049): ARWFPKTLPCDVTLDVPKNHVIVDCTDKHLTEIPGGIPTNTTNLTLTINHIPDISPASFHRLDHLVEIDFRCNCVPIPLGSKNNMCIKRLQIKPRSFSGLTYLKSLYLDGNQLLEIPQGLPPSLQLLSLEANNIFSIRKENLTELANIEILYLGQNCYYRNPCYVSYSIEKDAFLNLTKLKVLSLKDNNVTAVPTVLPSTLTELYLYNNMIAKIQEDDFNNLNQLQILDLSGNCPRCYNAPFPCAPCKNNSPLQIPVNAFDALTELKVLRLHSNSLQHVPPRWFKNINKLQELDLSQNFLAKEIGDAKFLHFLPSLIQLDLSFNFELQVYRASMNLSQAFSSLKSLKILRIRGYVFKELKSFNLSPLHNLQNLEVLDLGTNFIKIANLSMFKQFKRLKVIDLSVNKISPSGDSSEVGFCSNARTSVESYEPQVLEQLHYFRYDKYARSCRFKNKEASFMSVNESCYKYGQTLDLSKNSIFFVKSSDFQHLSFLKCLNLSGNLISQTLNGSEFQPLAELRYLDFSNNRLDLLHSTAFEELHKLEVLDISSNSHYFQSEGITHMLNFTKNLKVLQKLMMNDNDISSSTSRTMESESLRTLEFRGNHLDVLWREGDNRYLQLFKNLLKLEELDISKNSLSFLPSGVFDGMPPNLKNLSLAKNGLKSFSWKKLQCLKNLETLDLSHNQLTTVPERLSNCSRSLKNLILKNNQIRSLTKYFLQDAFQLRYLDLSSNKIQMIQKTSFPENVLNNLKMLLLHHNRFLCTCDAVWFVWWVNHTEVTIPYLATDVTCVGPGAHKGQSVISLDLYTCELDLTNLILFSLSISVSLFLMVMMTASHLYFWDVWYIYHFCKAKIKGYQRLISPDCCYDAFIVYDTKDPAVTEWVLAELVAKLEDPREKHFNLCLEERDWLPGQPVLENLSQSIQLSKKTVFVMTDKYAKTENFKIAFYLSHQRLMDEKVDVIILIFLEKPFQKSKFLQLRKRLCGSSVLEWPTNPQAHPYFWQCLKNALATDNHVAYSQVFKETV
Structure (SMILES),IC50 (human TLR8),IC50 (human TLR7)
"C[C@@H]1CN(c2ccc(C#N)c3ncccc23)C[C@@H]2CN(c3ccnc(N4CCNCC4)n3)CCN21 [Example 33, 5-[(4R,9aR)-4-methyl-8-(2-piperazin-1-ylpyrimidin-4-yl)-3,4,6,7,9,9a-hexahydro-1H-pyrazino[1,2-a]pyrazin-2-yl]quinoline-8-carbonitrile]",8 nM,10 nM
"C[C@@H]1CN(c2ccc(C#N)c3ncccc23)C[C@@H]2CN(CCc3ccc(N4C[C@@H](N)[C@@H](F)C4)cn3)CCN21 [Example 19, 5-[(4R,9aS)-8-[2-[5-[(3R,4S)-3-amino-4-fluoro-pyrrolidin-1-yl]-2-pyridyl]ethyl]-4-methyl-3,4,6,7,9,9a-hexahydro-1H-pyrazino[1,2-a]pyrazin-2-yl]quinoline-8-carbonitrile]",31 nM,10 nM
"CO[C@@H]1CN(c2ccc(CCN3CCN4[C@@H](C3)CN(c3ccc(C#N)c5ncccc35)C[C@H]4C)cn2)C[C@H]1N [Example 12, 5-[(4R,9aS)-8-[2-[6-[(3R,4R)-3-amino-4-methoxy-pyrrolidin-1-yl]-3-pyridyl]ethyl]-4-methyl-3,4,6,7,9,9a-hexahydro-1H-pyrazino[1,2-a]pyrazin-2-yl]quinoline-8-carbonitrile]",14 nM,12 nM
"C[C@@H]1CN(c2ccc(C#N)c3ncccc23)C[C@@H]2CN(Cc3cnc4c(c3)CNCC4)CCN21 [Example 6, 5-[(4R,9aS)-4-methyl-8-(5,6,7,8-tetrahydro-1,6-naphthyridin-3-ylmethyl)-3,4,6,7,9,9a-hexahydro-1H-pyrazino[1,2-a]pyrazin-2-yl]quinoline-8-carbonitrile]",14 nM,14 nM
"C[C@@H]1CN(c2ccc(C#N)c3ncccc23)C[C@@H]2CN(c3ccnc(N4CCOC[C@H](N)C4)c3)CCN21 [Example 54, 5-[(4R,9aS)-8-[2-[(6R)-6-amino-1,4-oxazepan-4-yl]-4-pyridyl]-4-methyl-3,4,6,7,9,9a-hexahydro-1H-pyrazino[1,2-a]pyrazin-2-yl]quinoline-8-carbonitrile]",26 nM,23 nM
"CO[C@@H]1CN(c2nccc(N3CCN4[C@@H](C3)CN(c3ccc(C#N)c5ncccc35)C[C@H]4C)n2)C[C@H]1N [Example 36, 5-[(4R,9aR)-8-[2-[(3R,4R)-3-amino-4-methoxy-pyrrolidin-1-yl]pyrimidin-4-yl]-4-methyl-3,4,6,7,9,9a-hexahydro-1H-pyrazino[1,2-a]pyrazin-2-yl]quinoline-8-carbonitrile]",15 nM,13 nM
"C[C@@H]1CN(c2ccc(C#N)c3ncccc23)C[C@@H]2CN(c3cccc4c3CNC4)CCN21 [Example 9, 5-[(4R,9aS)-8-isoindolin-4-yl-4-methyl-3,4,6,7,9,9a-hexahydro-1H-pyrazino[1,2-a]pyrazin-2-yl]quinoline-8-carbonitrile]",1 nM,3 nM
"C[C@@H]1CN(c2ccc(C#N)c3ncccc23)C[C@@H]2CN(c3ccnc(N4CCNCC4)c3)CCN21 [Example 32, 5-[(4R,9aS)-4-methyl-8-(2-piperazin-1-yl-4-pyridyl)-3,4,6,7,9,9a-hexahydro-1H-pyrazino[1,2-a]pyrazin-2-yl]quinoline-8-carbonitrile]",11 nM,16 nM

# Further lines, results first:
IC50 (human TLR8),IC50 (human TLR7),Structure (SMILES)
14 nM,8 nM,"Cc1nc(N2CCNCC2)ccc1CN1CCN2[C@@H](C1)CN(c1ccc(C#N)c3ncccc13)C[C@H]2C [Example 60, 5-[(4R,9aS)-4-methyl-8-[(2-methyl-6-piperazin-1-yl-3-pyridyl)methyl]-3,4,6,7,9,9a-hexahydro-1H-pyrazino[1,2-a]pyrazin-2-yl]quinoline-8-carbonitrile]"
28 nM,19 nM,"C[C@@H]1CN(c2ccc(C#N)c3ncccc23)C[C@@H]2CN(CCc3ccc(N4CC(C)(N)C4)nc3)CCN21 [Example 65, 5-[(4R,9aS)-8-[2-[6-(3-amino-3-methyl-azetidin-1-yl)-3-pyridyl]ethyl]-4-methyl-3,4,6,7,9,9a-hexahydro-1H-pyrazino[1,2-a]pyrazin-2-yl]quinoline-8-carbonitrile]"
84 nM,34 nM,"C[C@@H]1CN(c2ccc(C#N)n3ncc(F)c23)C[C@@H]2CN(CCc3ccc(N4C[C@@H](N)[C@@H](F)C4)nc3)CCN21 [Example 75, 4-[(4R,9aS)-8-[2-[6-[(3R,4S)-3-amino-4-fluoro-pyrrolidin-1-yl]-3-pyridyl]ethyl]-4-methyl-3,4,6,7,9,9a-hexahydro-1H-pyrazino[1,2-a]pyrazin-2-yl]-3-fluoro-pyrazolo[1,5-a]pyridine-7-carbonitrile]"
4 nM,6 nM,"[2H]c1ccc2c(N3C[C@@H]4CN(c5ncc(C(=O)N6CC7(CN(C)C7)C6)cc5C)CCN4[C@@H](C)C3)ccc(C#N)c2n1 [Example 103, 5-[(4S,9aR)-4-methyl-8-[3-methyl-5-(6-methyl-2,6-diazaspiro[3.3]heptane-2-carbonyl)-2-pyridyl]-3,4,6,7,9,9a-hexahydro-1H-pyrazino[1,2-a]pyrazin-2-yl]-2-deuterio-quinoline-8-carbonitrile]"
77 nM,53 nM,"CO[C@@H]1CN(c2ccc(CCN3CCN4[C@@H](C3)CN(c3ccc(C#N)n5nccc35)C[C@H]4C)cc2)C[C@H]1N [Example 68, 4-[(4R,9aS)-8-[2-[4-[(3R,4R)-3-amino-4-methoxy-pyrrolidin-1-yl]phenyl]ethyl]-4-methyl-3,4,6,7,9,9a-hexahydro-1H-pyrazino[1,2-a]pyrazin-2-yl]pyrazolo[1,5-a]pyridine-7-carbonitrile]"
2 nM,4 nM,"[2H]c1ccc2c(N3C[C@@H]4CN(c5ncc(C(=O)N6CC7(CN(C)C7)C6)cc5C)CCN4[C@H](C)C3)ccc(C#N)c2n1 [Example 102, 5-[(4R,9aR)-4-methyl-8-[3-methyl-5-(6-methyl-2,6-diazaspiro[3.3]heptane-2-carbonyl)-2-pyridyl]-3,4,6,7,9,9a-hexahydro-1H-pyrazino[1,2-a]pyrazin-2-yl]-2-deuterio-quinoline-8-carbonitrile]"
18 nM,25 nM,"Cc1cc(N2CCN3[C@@H](C2)CN(c2ccc(C#N)c4ncccc24)C[C@H]3C)cc(N2CC(C)(N)C2)n1 [Example 73, 5-[(4R,9aS)-8-[2-(3-amino-3-methyl-azetidin-1-yl)-6-methyl-4-pyridyl]-4-methyl-3,4,6,7,9,9a-hexahydro-1H-pyrazino[1,2-a]pyrazin-2-yl]quinoline-8-carbonitrile]"
10 nM,2 nM,"[2H]c1ccc2c(N3C[C@@H]4CN(c5ncc(N6C[C@H]7NCCO[C@@H]7C6)cc5C)CCN4[C@@H](C)C3)ccc(C#N)c2n1 [Example 114, 5-[(4S,9aR)-8-[5-[(4aR,7aR)-3,4,4a,5,7,7a-hexahydro-2H-pyrrolo[3,4-b][1,4]oxazin-6-yl]-3-methyl-2-pyridyl]-4-methyl-3,4,6,7,9,9a-hexahydro-1H-pyrazino[1,2-a]pyrazin-2-yl]-2-deuterio-quinoline-8-carbonitrile]"
